Assay results reported in PMC4488731 (Viruses, 2015).

Target: T1, EV-A71 2A protease (r2A protease) (Enterovirus A71, UniProt B9VUU3)
T1 sequence (B9VUU3 863-1012 limits assumed): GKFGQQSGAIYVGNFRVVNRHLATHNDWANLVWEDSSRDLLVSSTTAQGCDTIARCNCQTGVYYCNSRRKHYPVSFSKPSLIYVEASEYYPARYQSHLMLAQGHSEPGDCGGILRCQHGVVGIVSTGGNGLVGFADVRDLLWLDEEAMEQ
Type: biochemical
Conditions: 37 °C, 2 h, 5 µg/mL r2A, 10 µg/mL HRP substrate

Molecule `CCOC(=O)C1=C(Nc2cc(C)cc(C)c2)OCC1=O` [CW-33, Ethyl 2-(3′,5′-dimethylanilino)-4-oxo-4,5-dihydrofuran-3-carboxylate] has an IC50 of 53.1 µM.
